# Molecular target: T1, GPR17 (Homo sapiens, UniProt Q13304)
# Test: Calcium mobilization functional assay (Ca2+ assay) in CHO hGPR17 cells
# Format: cell-based
# Design: host or cells: Flp-In T-REx CHO cells, expression induced with doxycycline
# Conditions: inhibition of 50 nM MDL29,951 (GPR17 agonist), activity range, read-out: Ca^2+ assay pIC50 (converted)
# Description: (§1) Flp-In T-REx CHO cells stably expressing human GPR17 receptor (CHO hGPR17) from Evi Kostenis' lab (Bonn University, Germany) were cultured at 37° C. in a humidified atmosphere of 5% CO2. Cells were grown in DMEM with Nutrient Mixture F-12 supplemented with hygromycin B (500 μg/ml) and blasticidin (30 μg/ml). Expression from the Flp-In locus was induced by treatment with doxycycline (1 μg/ml) for 16-20 h prior assays.
# GPR17 is a G-protein coupled receptor. GPR17 activation triggers Gq-type G-protein signaling resulting in endoplasmic reticulum calcium (Ca^2+) stores release in cytosol which can be measured using Calcium 5 dye, a fluorescent indicator dye of cytosolic Ca^2+ levels. The compounds of the present invention were assessed either in the Ca^2+ assay or in the GPR17 cAMP assay, described further below.
# CHO hGPR17 were defrosted and seeded at a density of 20,000 cells per well into black 384-well plates with clear bottom. Cells were incubated overnight at 37° C. in a humidified atmosphere of 5% CO2. Sixteen to twenty hours after seeding, CHO hGPR17 were loaded for 60 min with Calcium 5 dye, a cytosolic Ca^2+ indicator fluorescent dye, according to manufacturer's instructions. Fluorescent signal relative to cytosolic Ca^2+ concentration was recorded over time at room temperature in FLIPR Tetra reader. Cells were first incubated for 30 minutes at room temperature in HBSS Hepes buffer pH 7.4 containing increasing concentrations of test compounds (typically 10^−11 M to 10^−6M). Then, 50 nM MDL29,951, a GPR17 agonist, was added to the cells. Inhibitory effects of varying concentrations test compounds were measured and resulting pIC50S were determined. All incubations were performed in duplicate and results were compared to a concentration response curve of GPR17 agonist and antagonist reference compounds. Analysis and curve fitting were performed in ActivityBase XE using XLfit 4-parameter logistic equation y=A+((B−A)/(1+((C/x)^D))) where A, B, C and D stand for minimum y, maximum y, IC50 and slope, respectively.
# The activities of the Example compounds tested are depicted in the table 6 in Section B-IIB below. The activity ranges A, B and C refer to pIC50 values in the Ca^2+ assay as follows: “A”: pIC50 6.5≤x<7.5, “B”: pIC50 7.5≤x<8.5, “C”: 8.5≤pIC50
# T1 sequence (Q13304 29-367 limits assumed): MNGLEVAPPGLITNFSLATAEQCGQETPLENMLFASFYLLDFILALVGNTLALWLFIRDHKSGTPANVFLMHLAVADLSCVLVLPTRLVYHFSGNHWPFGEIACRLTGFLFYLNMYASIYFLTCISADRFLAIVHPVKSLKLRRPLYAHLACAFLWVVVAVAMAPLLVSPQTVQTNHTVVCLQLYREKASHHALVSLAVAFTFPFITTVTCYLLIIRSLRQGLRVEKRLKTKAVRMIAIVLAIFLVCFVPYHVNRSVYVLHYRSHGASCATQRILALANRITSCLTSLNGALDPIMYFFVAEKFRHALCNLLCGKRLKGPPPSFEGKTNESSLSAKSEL
row,SMILES,IC50
1,"O=S(=O)(Nc1cc(F)cnc1F)c1c[nH]c2cc(Cl)ccc12 [Example I-1, 6-chloro-N-(2,5-difluoropyridin-3-yl)-1H-indole-3-sulfonamide]",31.6 to 316 nM
2,"O=S(=O)(Nc1cc(F)c(Cl)nc1F)c1c[nH]c2cc(Cl)ccc12 [Example I-2, 6-chloro-N-(6-chloro-2,5-difluoropyridin-3-yl)-1H-indole-3-sulfonamide]",≤ 3.16 nM
3,"COc1nc(Cl)c(F)cc1NS(=O)(=O)c1c[nH]c2cc(Cl)ccc12 [Example I-3, 6-chloro-N-(6-chloro-5-fluoro-2-methoxypyridin-3-yl)-1H-indole-3-sulfonamide]",3.16 to 31.6 nM
4,"COc1nc(F)c(NS(=O)(=O)c2c[nH]c3cc(Cl)ccc23)cc1F [Example I-5, 6-chloro-N-(2,5-difluoro-6-methoxypyridin-3-yl)-1H-indole-3-sulfonamide]",3.16 to 31.6 nM
5,"COc1ccc(NS(=O)(=O)c2c[nH]c3cc(Cl)ccc23)c(Cl)n1 [Example I-8, 6-chloro-N-(2-chloro-6-methoxypyridin-3-yl)-1H-indole-3-sulfonamide]",31.6 to 316 nM
6,"N#Cc1ccc(NS(=O)(=O)c2c[nH]c3cc(Cl)ccc23)cn1 [Example I-19, 6-chloro-N-(6-cyanopyridin-3-yl)-1H-indole-3-sulfonamide]",31.6 to 316 nM
7,"O=S(=O)(Nc1ccc(Br)nc1)c1c[nH]c2cc(Cl)ccc12 [Example I-20, N-(6-bromopyridin-3-yl)-6-chloro-1H-indole-3-sulfonamide]",31.6 to 316 nM
8,"O=S(=O)(Nc1cnc(Cl)c(F)c1)c1c[nH]c2cc(Cl)ccc12 [Example I-23, 6-chloro-N-(6-chloro-5-fluoropyridin-3-yl)-1H-indole-3-sulfonamide]",31.6 to 316 nM
9,"O=S(=O)(Nc1ccc(Cl)nc1)c1c[nH]c2cc(Cl)ccc12 [Example I-24, 6-chloro-N-(6-chloropyridin-3-yl)-1H-indole-3-sulfonamide]",31.6 to 316 nM
10,"COc1ccc(NS(=O)(=O)c2c[nH]c3c2ccc2ccccc23)c(OC)n1 [Example I-70, N-(2,6-dimethoxypyridin-3-yl)-1H-benzo[g]indole-3-sulfonamide]",31.6 to 316 nM

# Next, values leading:
row,IC50,SMILES
1,31.6 to 316 nM,"COc1cc(NS(=O)(=O)c2c[nH]c3cc(Cl)ccc23)c(F)nc1Cl [Example I-4, 6-chloro-N-(6-chloro-2-fluoro-5-methoxypyridin-3-yl)-1H-indole-3-sulfonamide]"
2,31.6 to 316 nM,"COc1ncc(Cl)cc1NS(=O)(=O)c1c[nH]c2cc(Cl)ccc12 [Example I-17, 6-chloro-N-(5-chloro-2-methoxypyridin-3-yl)-1H-indole-3-sulfonamide]"

# Molecular target: T1, GPR17
# Test: cAMP accumulation functional assay (HTRF) in CHO hGPR17 cells
# Format: cell-based
# Design: host or cells: Flp-In T-REx CHO cells, expression induced with doxycycline
# Conditions: Schild analysis against MDL29,951, 5 μM forskolin, activity range, read-out: cAMP assay pA2 (converted)
# Description: as §1
# GPR17 activation can also recruit Gi-type G-protein signaling, resulting in a decrease of intracellular cyclic adenosine monophosphate (cAMP). Intracellular cAMP changes can be measured using the HTRF cAMP dynamic assay kit from CisBio (Codolet, France). Using homogenous time-resolved fluorescence technology (HTRF), the assay is based on competition between native cAMP produced by cells and cAMP labelled with the dye d2. The tracer binding was determined by an anti-cAMP antibody labeled with cryptate.
# CHO hGPR17 were detached with PBS containing EDTA and dispatched in black 384-well plates with 5,000 cells per well. Cells were first incubated for 30 minutes at room temperature in HBSS Hepes (pH 7.4) containing vehicle or varying concentrations of test GPR17 antagonist/inverse agonist compounds. Then, a dose response curve of MDL29,951 GPR17 agonist (typically from 10^−5M to 10^−10M) was added on vehicle and on each test GPR17 antagonist/inverse agonist compound concentration in a final volume of 20 μL HBSS Hepes buffer (pH 7.4) containing 1% DMSO, 5 μM forskolin and 0.1 mM IBMX. After 60 minutes incubation at room temperature, the reaction is terminated and the cells lysed by adding the d2 detection reagent and the cryptate reagent in 10 μL lysis buffer each according to manufacturer's instructions. After 60 minutes incubation, changes in cAMP concentrations are measured according to manufacturer's instructions using an Envision plate reader with laser excitation. All incubations were performed in duplicate. Data was analyzed using GraphPad Prism software using the 4-parameter logistic equation to measure MDL29,951 pEC50s in absence and presence of GPR17 antagonist/inverse agonist test compounds. Dose ratio (DR) were plotted against antagonist concentrations and Schild analysis provided estimated affinity pA2 of GPR17 antagonist/inverse agonist test compounds.
# The activities of the Example compounds tested are depicted in the table below. The activity ranges A, B and C refer to pA2 values in the cAMP assay as follows: “A”: pA2 6.5≤x<7.5, “B”: pA2 7.5≤x<8.5, “C”: 8.5≤pA2.
row,SMILES,Kb
1,"O=S(=O)(Nc1cc(F)c(Cl)nc1F)c1c[nH]c2cc(Cl)ccc12 [Example I-2, 6-chloro-N-(6-chloro-2,5-difluoropyridin-3-yl)-1H-indole-3-sulfonamide]",3.16 to 31.6 nM
2,"COc1nc(Cl)c(F)cc1NS(=O)(=O)c1c[nH]c2cc(Cl)ccc12 [Example I-3, 6-chloro-N-(6-chloro-5-fluoro-2-methoxypyridin-3-yl)-1H-indole-3-sulfonamide]",≤ 3.16 nM
3,"COc1nc(F)c(NS(=O)(=O)c2c[nH]c3cc(Cl)ccc23)cc1F [Example I-5, 6-chloro-N-(2,5-difluoro-6-methoxypyridin-3-yl)-1H-indole-3-sulfonamide]",3.16 to 31.6 nM
4,"COc1nc(OCC(F)F)c(F)cc1NS(=O)(=O)c1c[nH]c2cc(C#N)ccc12 [Example I-65, 6-cyano-N-[6-(2,2-difluoroethoxy)-5-fluoro-2-methoxypyridin-3-yl]-1H-indole-3-sulfonamide]",3.16 to 31.6 nM
5,"COc1nc(OC(F)F)c(F)cc1NS(=O)(=O)c1c[nH]c2c1ccc1cccnc12 [Example I-68, N-[6-(difluoromethoxy)-5-fluoro-2-methoxypyridin-3-yl]-1H-pyrrolo[3,2-h]quinoline-3-sulfonamide]",≤ 3.16 nM
6,"COc1nc(Cl)c(F)cc1NS(=O)(=O)c1c[nH]c2nc(OCc3ccccc3)ccc12 [Example I-72, N-(6-chloro-5-fluoro-2-methoxypyridin-3-yl)-6-phenylmethoxy-1H-pyrrolo[2,3-b]pyridine-3-sulfonamide]",31.6 to 316 nM

# The next lines start with the values.
row,Kb,SMILES
1,3.16 to 31.6 nM,"COc1nc(OC)c(NS(=O)(=O)c2c[nH]c3nc(C(F)F)ccc23)cc1F [Example I-56, 6-(difluoromethyl)-N-(5-fluoro-2,6-dimethoxypyridin-3-yl)-1H-pyrrolo[2,3-b]pyridine-3-sulfonamide]"
2,3.16 to 31.6 nM,"Cc1nc(F)c(NS(=O)(=O)c2c[nH]c3nc(C(F)F)ccc23)cc1F [Example I-57, 6-(difluoromethyl)-N-(2,5-difluoro-6-methylpyridin-3-yl)-1H-pyrrolo[2,3-b]pyridine-3-sulfonamide]"
3,≤ 3.16 nM,"COc1nc(OCCOC(F)F)c(F)cc1NS(=O)(=O)c1c[nH]c2nc(C(F)F)ccc12 [Example I-58, N-[6-[2-(difluoromethoxy)ethoxy]-5-fluoro-2-methoxypyridin-3-yl]-6-(difluoromethyl)-1H-pyrrolo[2,3-b]pyridine-3-sulfonamide]"
4,≤ 3.16 nM,"COc1nc(OC(F)F)c(F)cc1NS(=O)(=O)c1c[nH]c2cc(C)ccc12 [Example I-60, N-[6-(difluoromethoxy)-5-fluoro-2-methoxypyridin-3-yl]-6-methyl-1H-indole-3-sulfonamide]"
5,31.6 to 316 nM,"COc1ccc(NS(=O)(=O)c2c[nH]c3cc(Cl)ccc23)c(OC)n1 [Example I-61, 6-chloro-N-(2,6-dimethoxypyridin-3-yl)-1H-indole-3-sulfonamide]"
6,≤ 3.16 nM,"COc1nc(OCC(F)F)c(F)cc1NS(=O)(=O)c1c[nH]c2cc(C(F)F)ccc12 [Example I-62, N-[6-(2,2-difluoroethoxy)-5-fluoro-2-methoxypyridin-3-yl]-6-(difluoromethyl)-1H-indole-3-sulfonamide]"
7,≤ 3.16 nM,"COc1ccc2c(S(=O)(=O)Nc3cc(F)c(OC(F)F)nc3OC)c[nH]c2c1 [Example I-63, N-[6-(difluoromethoxy)-5-fluoro-2-methoxypyridin-3-yl]-6-methoxy-1H-indole-3-sulfonamide]"
8,≤ 3.16 nM,"COc1ccc2c(S(=O)(=O)Nc3cc(F)c(OCC(F)F)nc3OC)c[nH]c2c1 [Example I-64, N-[6-(2,2-difluoroethoxy)-5-fluoro-2-methoxypyridin-3-yl]-6-methoxy-1H-indole-3-sulfonamide]"
9,≤ 3.16 nM,"COc1nc(OC(F)F)c(F)cc1NS(=O)(=O)c1c[nH]c2cc(C#N)ccc12 [Example I-66, 6-cyano-N-[6-(difluoromethoxy)-5-fluoro-2-methoxypyridin-3-yl]-1H-indole-3-sulfonamide]"
10,≤ 3.16 nM,"O=S(=O)(Nc1cc(F)c(OCC(F)F)nc1F)c1c[nH]c2cc(Cl)ccc12 [Example I-67, 6-chloro-N-[6-(2,2-difluoroethoxy)-2,5-difluoropyridin-3-yl]-1H-indole-3-sulfonamide]"
11,≤ 3.16 nM,"COc1nc(OCC(F)F)c(F)cc1NS(=O)(=O)c1c[nH]c2c1ccc1cccnc12 [Example I-69, N-[6-(2,2-difluoroethoxy)-5-fluoro-2-methoxypyridin-3-yl]-1H-pyrrolo[3,2-h]quinoline-3-sulfonamide]"
12,≤ 3.16 nM,"COc1nc(OCC(F)F)c(F)cc1NS(=O)(=O)c1c[nH]c2nc(Cl)c(Br)cc12 [Example I-71, 5-bromo-6-chloro-N-[6-(2,2-difluoroethoxy)-5-fluoro-2-methoxypyridin-3-yl]-1H-pyrrolo[2,3-b]pyridine-3-sulfonamide]"

# Source: US11939319B2, “Pyridinyl and pyrazinyl-(asa)indolsulfonamides” (UCB Pharma GmbH, priority 2018, dated 2024)
